From patent publication US20260083708A1, “IL-17 MODULATORS AND USES THEREOF” (NNOCARE PHARMA INC., priority 2024, published 2026) come the findings set out here.

pIC50: −log10 of the molar value.

The subject of experiment [1] is IL-17AF-induced IL-17 signaling pathway. Kind of experiment: Inhibition of IL-17AF-induced IL-17 signaling pathway. It is filed as cell-based. The conditions noted are these: Homo sapiens; IL-17AF used instead of IL-17AA; read-out: IC50 for Inhibiting IL-AF Signaling. The text has this: (§1) Interleukin-17 (IL-17) reporter cell line (HEK-Blue IL-17, InvivoGen, Catalog Number hkb-i117) is created by genetically engineering human IL-17RA/IL-17RC heterodimeric receptor and downstream adapter protein ACT1 into human embryonic kidney 293 cells (HEK293). These cells also express secreted embryonic alkaline phosphatase (SEAP) reporter gene induced by NF-κB and AP-1. Therefore, IL-17AA can activate NF-κB and AP-1 signaling pathways inside the cells by binding to IL-17RA/RC on cell membrane, leading to expression of SEAP protein. After a colorimetric reaction between SEAP protein and Quanti-Blue solution, the absorbance at 620 nm is measured using a microplate reader (BioTek H1M, Agilent, Catalog Number SH1M-SN) to determine IL-17AA-activated signaling pathway.
(§2) In the experiment, HEK-Blue IL-17 cells were cultured at 37° C. under 5% CO2 conditions using the recommended medium from InvivoGen's instruction. Compounds were serially diluted starting from 10 μM. 4 μL of each compound solution was added to 32 μL of cells (10,000 cells) at 37° C. for 1 hour. After pre-incubation, 4 μL of IL-17AA with a final concentration of 2.5 ng/mL (Sino Biological, Catalog Number 12047-HNAS) was added to the cells, and incubation was continued for additional 20 hours. After incubation, 5 μL of cell culture supernatant was added to 45 μL of Quanti-Blue for the colorimetric reaction. The group without tested compound had the highest absorbance at 620 nm, and the group without IL-17AA had the lowest absorbance at 620 nm.
(§3) Therefore, the percentage of inhibition of tested compound was calculated as
(§4) Experimental results were analyzed using XLfit (IDBS) for 4-parameter nonlinear fitting analysis to provide the IC50 value for each tested compound (Table 1).
Example 44. Inhibition of IL-17AF-Induced IL-17 Signaling Pathway
The same experimental procedure to Example […] was followed where IL-17AF was used instead of IL-17AA.

For experiment [2], the system named is IL-17AA-induced IL-17 signaling pathway. Put plainly: Inhibition of IL-17AA-induced IL-17 signaling pathway in HEK-Blue IL-17 reporter cells (SEAP). It is filed as cell-based. The settings on record: Homo sapiens; HEK-Blue IL-17 cells, IL-17AA 2.5 ng/mL, 20 hours; read-out: IC50 for Inhibiting IL-AA Signaling.
From the text: Example 43. Inhibition of IL-17AA-Induced IL-17 Signaling Pathway
as §1, §2, §3, §4

In experiment [3] the target is T1, IL-17AA and IL-17RA (Homo sapiens, UniProt Q16552).
T1 construct: purchased Sino Biological 12047-H07B (IL-17AA); 10895-H02H (IL-17RA)
T1 sequence (Q16552 24-155): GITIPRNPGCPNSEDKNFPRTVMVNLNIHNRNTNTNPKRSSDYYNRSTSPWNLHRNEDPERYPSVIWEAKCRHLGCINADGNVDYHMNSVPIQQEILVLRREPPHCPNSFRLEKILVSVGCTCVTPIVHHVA
Kind of experiment: Competitive inhibition of human IL-17AA and IL-17RA binding (HTRF). The settings on record: recombinant IL-17AA (His-tag) and IL-17RA (hFc-tag); read-out: IC50 for Inhibiting IL-AA/IL-RA Binding. The procedure:
Example 42. Competitive Inhibition of Human IL-17AA and IL-17RA Binding
Recombinant IL-17AA (His-tag, Catalog Number 12047-H07B) and IL-17RA (hFc-tag, Catalog Number 10895-H02H) were purchased from Sino Biological. In the experiment, 10 μL of IL-17AA (1 nM) or IL-17RA (1 nM) was added to 10 μL of anti-6His-Tb (0.4 nM, Revvity, Catalog Number 61HISTLF) or anti-human IgG-d2 (1 μg/mL, anti-human IgG-d2, Revvity, Catalog Number 61HFCDAF), respectively and incubated at room temperature for 1 hour. Compounds were serially diluted starting from 10 μM. 5 μL of each compound solution was incubated with 5 μL of a mixture of IL-17AA and anti-6His-Tb at room temperature for 2 hours. After pre-incubation, to which was added 10 μL of a mixture of IL-17RA and anti-human IgG-d2, and incubation was continued for additional 20 minutes. Subsequently, a microplate reader (Envision, PerkinElmer) was used to detect fluorescence intensity at 615 nm and 665 nm, and the ratio of intensity thereof indicates the degree of IL-17AA and IL-17RA interaction. The ratio of intensity in the absence of tested compound was the highest value of binding between IL-17AA and IL-17RA, and the ratio of intensity in the absence of IL-17AA was the lowest value.
as §3
Experimental results were analyzed using XLfit (IDBS) for 4-parameter nonlinear fitting analysis, to provide the IC50 value for each tested compound (Table 1).

Turning to `CCn1nccc1C(=O)N[C@H](C(=O)Nc1ccc([C@H](C)[C@@H](NC(=O)COC)c2nncn2CC2CCOCC2)cc1F)C(C1CC1)C1CC1` [Compound 9, N-((S)-1,1-dicyclopropyl-3-((2-fluoro-4-((1R,2S)-1-(2-methoxyacetamido)-1-(4-((tetrahydro-2H-pyran-4-yl)methyl)-4H-1,2,4-triazol-3-yl)propan-2-yl)phenyl)amino)-3-oxopropan-2-yl)-1-ethyl-1H-pyrazole-5-carboxamide], the pIC50 in experiment [1] was 6.88; in experiment [2] it was 7.51; in experiment [3], 7.80.

In the case of `COCC(=O)N[C@@H](c1nncn1CC1CC1)[C@@H](C)c1ccc(NC(=O)[C@@H](NC(=O)COCC2(C(F)F)COC2)C(C2CC2)C2CC2)c(F)c1` [Compound 10, (S)-3,3-dicyclopropyl-N-(4-((1R,2S)-1-(4-(cyclopropylmethyl)-4H-1,2,4-triazol-3-yl)-1-(2-methoxyacetamido)propan-2-yl)-2-fluorophenyl)-2-(2-((3-(difluoromethyl)oxetan-3-yl)methoxy)acetamido)propanamide], the pIC50 in experiment [1] is 5.98; in experiment [2] it was 6.56; in experiment [3], 6.96.

As for `COCC(=O)N[C@@H](c1nncn1CC1CC1)[C@@H](C)c1ccc(NC(=O)[C@@H](NC(=O)C2(F)CC2)C(C2CC2)C2CC2)c(F)c1` [Compound 11, N-((S)-1,1-dicyclopropyl-3-((4-((1R,2S)-1-(4-(cyclopropylmethyl)-4H-1,2,4-triazol-3-yl)-1-(2-methoxyacetamido)propan-2-yl)-2-fluorophenyl)amino)-3-oxopropan-2-yl)-1-fluorocyclopropane-1-carboxamide], the figures for the pIC50 in experiment [1], in experiment [2] and in experiment [3] were 7.04, 7.36 and 7.89, respectively.

Turning to `CCn1nccc1C(=O)N[C@H](C(=O)Nc1ccc([C@H](C)[C@@H](NC(=O)COC)c2nncn2C2CC2)cc1F)C(C1CC1)C1CC1` [Compound 12, N-((S)-1,1-dicyclopropyl-3-((4-((1R,2S)-1-(4-cyclopropyl-4H-1,2,4-triazol-3-yl)-1-(2-methoxyacetamido)propan-2-yl)-2-fluorophenyl)amino)-3-oxopropan-2-yl)-1-ethyl-1H-pyrazole-5-carboxamide], the pIC50 in experiment [1] is 6.49; in experiment [2] it was 7.04; in experiment [3], 7.31.

In the case of `COCC(=O)N[C@@H](c1nncn1CC1CC1)[C@@H](C)c1ccc(NC(=O)[C@@H](NC(=O)COc2cc(C(F)F)ccn2)C(C2CC2)C2CC2)c(F)c1` [Compound 13, (S)-3,3-dicyclopropyl-N-(4-((1R,2S)-1-(4-(cyclopropylmethyl)-4H-1,2,4-triazol-3-yl)-1-(2-methoxyacetamido)propan-2-yl)-2-fluorophenyl)-2-(2-((4-(difluoromethyl)pyridin-2-yl)oxy)acetamido)propanamide], the results for the pIC50 in experiment [1], in experiment [2] and in experiment [3] were 6.67, 7.17 and 7.40, respectively.

`CCc1nonc1C(=O)N[C@H](C(=O)Nc1ccc([C@H](C)[C@@H](NC(=O)COC)c2nncn2CC2CC2)cc1F)C(C1CC1)C1CC1` [Compound 14, N-((S)-1,1-dicyclopropyl-3-((4-((1R,2S)-1-(4-(cyclopropylmethyl)-4H-1,2,4-triazol-3-yl)-1-(2-methoxyacetamido)propan-2-yl)-2-fluorophenyl)amino)-3-oxopropan-2-yl)-4-ethyl-1,2,5-oxadiazole-3-carboxamide]: the pIC50 in experiment [1] was 8.05; in experiment [2], 8.64; in experiment [3], 8.54.

Consider `COCC(=O)N[C@@H](c1nncn1CC1CC1)[C@@H](C)c1ccc(NC(=O)[C@@H](NC(=O)COCC2CC2)C(C2CC2)C2CC2)c(F)c1` [Compound 15, (S)-3,3-dicyclopropyl-2-(2-(cyclopropylmethoxy)acetamido)-N-(4-((1R,2S)-1-(4-(cyclopropylmethyl)-4H-1,2,4-triazol-3-yl)-1-(2-methoxyacetamido)propan-2-yl)-2-fluorophenyl)propanamide], for which the pIC50 was 5.67 in experiment [1], 5.95 in experiment [2] and 6.76 in experiment [3].

Consider `CCn1nccc1C(=O)N[C@H](C(=O)Nc1ccc([C@H](C)[C@@H](NC(=O)[C@H](C)OC)c2nncn2CC2CC2)cc1F)C(C1CC1)C1CC1` [Compound 16, N-((S)-1,1-dicyclopropyl-3-((4-((1R,2S)-1-(4-(cyclopropylmethyl)-4H-1,2,4-triazol-3-yl)-1-((S)-2-methoxypropanamido)propan-2-yl)-2-fluorophenyl)amino)-3-oxopropan-2-yl)-1-ethyl-1H-pyrazole-5-carboxamide], for which the pIC50 in experiment [1] was 7.89; in experiment [2], 8.20; in experiment [3], 8.20.

Consider `CCn1nccc1C(=O)N[C@H](C(=O)Nc1ccc([C@H](C)[C@@H](NC(=O)COC)c2nnc(C)s2)cc1F)C(C1CC1)C1CC1` [Compound 17, N-((S)-1,1-dicyclopropyl-3-((2-fluoro-4-((1R,2S)-1-(2-methoxyacetamido)-1-(5-methyl-1,3,4-thiadiazol-2-yl)propan-2-yl)phenyl)amino)-3-oxopropan-2-yl)-1-ethyl-1H-pyrazole-5-carboxamide], for which the results for the pIC50 in experiment [1], in experiment [2] and in experiment [3] were 6.60, 7.07 and 6.35, respectively.

With `CCn1nccc1C(=O)N[C@H](C(=O)Nc1ccc([C@H](C)[C@@H](NC(=O)COC)c2nnc(C)n2CC2CC2)cc1F)C(C1CC1)C1CC1` [Compound 18, N-((S)-1,1-dicyclopropyl-3-((4-((1R,2S)-1-(4-(cyclopropylmethyl)-5-methyl-4H-1,2,4-triazol-3-yl)-1-(2-methoxyacetamido)propan-2-yl)-2-fluorophenyl)amino)-3-oxopropan-2-yl)-1-ethyl-1H-pyrazole-5-carboxamide], the pIC50 was 7.29 in experiment [1], 7.85 in experiment [2] and 7.77 in experiment [3].

As to `CCn1nccc1C(=O)N[C@H](C(=O)Nc1ccc([C@H](C)[C@@H](NC(=O)COC)c2ncnn2CC2CC2)cc1F)C(C1CC1)C1CC1` [Compound 19, N-((S)-1,1-dicyclopropyl-3-((4-((1R,2S)-1-(1-(cyclopropylmethyl)-1H-1,2,4-triazol-5-yl)-1-(2-methoxyacetamido)propan-2-yl)-2-fluorophenyl)amino)-3-oxopropan-2-yl)-1-ethyl-1H-pyrazole-5-carboxamide], the pIC50 in experiment [1] is 8.40; in experiment [2], 8.59; in experiment [3], 8.35.

Regarding `CCn1nccc1C(=O)N[C@H](C(=O)Nc1ccc([C@H](C)[C@@H](NC(=O)COC)c2ncn(CC3CC3)n2)cc1F)C(C1CC1)C1CC1` [Compound 20, N-((S)-1,1-dicyclopropyl-3-((4-((1R,2S)-1-(1-(cyclopropylmethyl)-1H-1,2,4-triazol-3-yl)-1-(2-methoxyacetamido)propan-2-yl)-2-fluorophenyl)amino)-3-oxopropan-2-yl)-1-ethyl-1H-pyrazole-5-carboxamide], the pIC50 is 7.30 in experiment [1], 7.85 in experiment [2] and 7.70 in experiment [3].
